Source: patent publication US20240254066A1, “RESCORCINOLS, METHODS FOR THEIR MANUFACTURE, AND USES THEREOF” (GW Research Limited, priority 2021, published 2024)

System: tonic hind limb extensor convulsions (mouse model of generalised seizure)
Test: mini-MEST (maximal electroshock seizure threshold) test in the mouse
Conditions: for change in vivo at 50 mg/kg / change in vivo at 25 mg/kg: 0.5 h; for change in vivo at 50 mg/kg: read-out: % change from vehicle, 50 mg/kg i.p., 30 min post dose; for change in vivo at 25 mg/kg: read-out: % change from vehicle, 25 mg/kg i.p., 30 min post dose
Procedure: The efficacy of novel resorcinols 2, 3, 5, 8, 10, 15, 16, 17, 18, 19, 41 45, 46, 53, 56 and 58 were tested in a novel mouse model of generalised seizure, the mini-MEST (maximal electroshock seizure threshold) test, which uses lower n numbers than typically used.
The maximal electroshock seizure threshold (MEST) test is widely utilized preclinically to evaluate pro- or anti-convulsant properties of test compounds (Loscher et al., 1991).
In the MEST test the ability of a drug to alter the seizure threshold current required to induce hind limb tonic extensor convulsions is measured according to an “up and down” method of shock titration (Kimball et al., 1957). An increase in seizure threshold is indicative of anti-convulsant effect.
The ability of a test compound to alter the stimulus intensity, expressed as current (mA), required to induce the presence of tonic hind limb extensor convulsions, is assessed in the MEST.
Naïve mice were acclimatised to the procedure room in their home cages for up to 7 days, with food and water available ad libitum.
All animals were weighed at the beginning of the study and randomly assigned to treatment groups based on a mean distribution of body weight across groups.
The first animal within a treatment group was given a shock at the expected or estimated CC50 current. For subsequent animals, the current was lowered or raised depending on the convulsions outcome from the preceding animal in log scale intervals.
Data generated from each treatment group were used to calculate the CC50±SEM values for the treatment group.
Vehicle: (5% ethanol, 10% solutol in 85% Saline) was prepared as follows: 1 mL of ethanol, 2 mL of solutol were warmed to 60° C., in 17 mL of saline (1:2:17).
The test compounds used were 2, 3, 5, 8, 10, 15, 16, 17, 18, 19, 41, 45, 46, 53, 56 and 58 Test compounds were administered at 5-50 mg/kg (i.p.) in a 1:2:17 ethanol:solutol:saline formulation.
Test compound effects were also calculated as percentage change in CC50 from the vehicle control group.
Significant difference between drug-treated animals and controls were assessed according to Litchfield and Wilcoxon (1949).

[1] = 50 mg/kg i.p., test 30 min post dose
[2] = Mus musculus, ip, change in CC50
[3] = 25 mg/kg i.p., test 30 min post dose

SMILES | CC50 +/− SEM [1] [mA] | change in vivo at 50 mg/kg [2] [%] | CC50 +/− SEM [3] | change in vivo at 25 mg/kg [2] [%] | CC50 +/− SEM (5 mg/kg i.p., test 15 min post dose) [mA] | change in vivo at 5 mg/kg (Mus musculus, ip, 0.25 h, read-out: % change from vehicle, 5 mg/kg i.p., 15 min post dose, change in CC50) [%]
C=C(C)[C@@H]1C[C@H](O)C(C)=C[C@H]1c1c(O)cc(CCC)c(Cl)c1O [Compound 46, (1′R,2′R,4′S)-3-chloro-5′-methyl-2′-(prop-1-en-2-yl)-4-propyl-1′,2′,3′,4′-tetrahydro-[1,1′-biphenyl]-2,4′,6-triol] | 84.0 ± 3.4 | 217 |  |  |  | 
C=C(C)[C@@H]1C[C@H](O)C(C)=C[C@H]1c1c(O)cc(Br)c(Cl)c1O [Compound 47, (1′R,2′R,4′S)-4-bromo-3-chloro-5′-methyl-2′-(prop-1-en-2-yl)-1″,2″,3′,4′-tetrahydro-[1,1′-biphenyl]-2,4′,6-triol] |  |  | 79.5 ± 10.0 mA | 238 |  | 
C=C(C)[C@@H]1C[C@H](O)C(C)=C[C@H]1c1c(O)cc(-c2cccc(OC)c2)c(Cl)c1O [Compound 49, (1R,2R,4S)-3′-Chloro-3″-methoxy-5-methyl-2-(prop-1-en-2-yl)-1,2,3,4-tetrahydro-[1,1′:4′,1″-terphenyl]-2′,4,6′-triol] | 97.5 ± 1.3 | 244 |  |  |  | 
C=C(C)[C@@H]1C[C@H](O)C(C)=C[C@H]1c1c(O)c(C)c(-c2ccnc(OC)c2)c(C)c1O [Compound 52, (1′R,2′R,4′S)-4-(2-Methoxypyridin-4-yl)-3,5,5′-trimethyl-2′-(prop-1-en-2-yl)-1′,2′,3′,4′-tetrahydro-[1,1′-biphenyl]-2,4′,6-triol] | 76.5 ± 2.6 | 170 |  |  | 31.0 ± 4.5 | 9
C=C(C)[C@@H]1C[C@H](OC)C(C)=C[C@H]1c1c(O)cc(CCC)cc1O [Compound 53, (1′R,2′R,4′S)-4′-Methoxy-5′-methyl-2′-(prop-1-en-2-yl)-4-propyl-1′,2″,3′,4′-tetrahydro-[1,1′-biphenyl]-2,6-diol] |  |  | 29.0 +/− 1.5 mA | 29 |  | 
C=C(C)[C@@H]1C[C@H](O)C(C)=C[C@H]1c1c(O)cc(-c2ccnc(C(F)(F)F)c2)cc1O [Compound 58, (1′R,2′R,4′S)-5′-Methyl-2′-(prop-1-en-2-yl)-4-(2-(trifluoromethyl)pyridin-4-yl)-1′,2′,3′,4′-tetrahydro-[1,1′-biphenyl]-2,4′,6-triol] | 88.5 ± 1.3 | 234 |  |  |  | 
